# Test: Titration of 1% w/w solution with 0.5 M NaOH until precipitate forms
# Assay type: physicochemical
# Description: The finished material was tested by titration with 0.5 M NaOH. A 1% w/w solution was made of the material by placing 1.0042 g in a 100 mL of deionized water. 0.5 M NaOH was then titrated into this solution. The material absorbed 23.8 mL of the 0.5 M NaOH while the solution pH rose from about 2 to about 10.2, whereupon a precipitate formed.
substance,measurement,setting,value
zinc EDTA chelate [pure zinc EDTA chelate],0.5 M NaOH absorbed until a precipitate formed,"1% w/w solution in 100 mL deionized water, titrated with 0.5 M NaOH",5.8 mL
same,solution pH at which a precipitate formed,1% w/w solution titrated with 0.5 M NaOH,above 10.2

# Reference: US9540289B2, “Chelated compositions and methods of making and using the same” (Scott G. Williams, LLC, priority 2010, dated 2017)
